pIC50: −log10 of the molar value.
Tests used:
Format in all cases: cell-based
Met = Met (Homo sapiens (Human), UniProt P08581); experiment: Met autophosphorylation ELISA in PC-3 cells; conditions: cellular, HGF-stimulated, phospho-Met ELISA, read-out: c-Met IC50
Procedure: PC-3 prostate cancer cells (ATCC #CRL-1435) were seeded at 4×10^4 cells/well onto 24-well plates (Greiner #662165), in DMEM (Thermo Fisher #11995-040) containing 10% FBS (Thermo Fisher #26140-079), 1% MEM NEAA (Thermo Fisher #11140-050), 1% GlutaMax (Thermo Fisher #35050-061), and 1% Penicillin Streptomycin (Thermo Fisher #15140-122). PC-3 cells were incubated at 37° C., 5% CO2 for 24 h and then starved for 3 h in serum-free medium. Test compounds were serially diluted to produce an 8-point dose curve in fresh serum-free medium to a final concentration of 0.3% DMSO (vehicle) and added to the cells and incubated for 1 h. Cells were then stimulated with 100 ng/mL recombinant human HGF (R&D Systems #294-HG-250) for 10 min, washed with cold PBS, and immediately lysed with 130 μL of cold IX lysis buffer [20 mM Tris, 137 mM sodium chloride, 2 mM EDTA, 10% glycerol, 1% NP-40 alternative, 1 mM activated sodium orthovanadate, 1 mM PefaBloc SC (Sigma-Aldrich #11429868001), protease/phosphatase inhibitor tablet (Thermo Fisher #A32959)]. Lysates were clarified by centrifugation and 100 μL/well added into the PathScan phospho-Met (panTyr) Sandwich ELISA (Cell Signaling Technology #7333). Assay was performed according to manufacturer's instructions. Positive control wells (100% activity) contained HGF-stimulated, DMSO-treated cell lysates. Negative control wells (0% activity) contained HGF-stimulated, reference inhibitor-treated cell lysates. IC50 values were calculated by nonlinear regression analysis using a 4-parameter logistic curve fit in ActivityBase XL (IDBS).

KDR = KDR (Homo sapiens (Human), UniProt P35968); experiment: KDR autophosphorylation ELISA in HUVEC cells; conditions: cellular, VEGF165-stimulated, phospho-KDR ELISA
Procedure: Human umbilical vein endothelial cells or HUVEC (Lonza #C2519A) were seeded at 2×10^4 cells/well onto 96-well plates (Corning #3904), in EGM-2 growth medium (Lonza #CC-3162) containing 1% Penicillin Streptomycin (Thermo Fisher #15140-122). HUVEC cells were incubated at 37° C., 5% CO2 for 24 h and then starved for 24 h in serum-free EBM-2 basal medium (Lonza #CC-3156) containing 1% Penicillin Streptomycin. Test compounds were serially diluted to produce an 8-point dose curve in fresh serum-free medium to a final concentration of 0.3% DMSO (vehicle) and added to the cells and incubated for 1 h. Cells were then stimulated with 100 ng/mL recombinant human VEGF165 (R&D Systems #293-VE-500) for 5 min, washed with cold PBS, and immediately lysed with 130 μL of cold 1× lysis buffer [20 mM Tris, 137 mM sodium chloride, 2 mM EDTA, 10% glycerol, 1% NP-40 alternative, 1 mM activated sodium orthovanadate, 1 mM PefaBloc SC (Sigma-Aldrich #11429868001), protease/phosphatase inhibitor tablet (Thermo Fisher #A32959)]. Lysates were collected and 100 μL/well added into the human phospho-KDR Duo Set IC ELISA (R&D Systems #DYC 1766-2). Assay was performed according to manufacturer's instructions and sample phospho-KDR concentrations were extrapolated using human phospho-KDR control (R&D Systems #841421) as a standard. Positive control wells (100% activity) contained VEGF165-stimulated, DMSO-treated cell lysates. Negative control wells (0% activity) contained non-stimulated cell lysates. IC50 values were calculated by nonlinear regression analysis using a 4-parameter logistic curve fit in ActivityBase XE (IDBS).

AXL = AXL (Homo sapiens (Human), UniProt P30530); experiment: AXL autophosphorylation ELISA in A-172 cells; conditions: cellular, Gas6-stimulated, phospho-AXL ELISA
Procedure: A-172 glioblastoma cells (ATCC #CRL-1620) were seeded at 2.5×10^5 cells/well onto 24-well plates (Greiner #662165), in DMEM (Thermo Fisher #11995-040) containing 10% FBS (Thermo Fisher #26140-079), 1% MEM NEAA (Thermo Fisher #11140-050), 1% GlutaMax (Thermo Fisher #35050-061), and 1% Penicillin Streptomycin (Thermo Fisher #15140-122). A-172 cells were incubated at 37° C., 5% CO2 for 24 h and then starved for 24 h in serum-free medium. Test compounds were serially diluted to produce an 8-point dose curve in fresh serum-free medium to a final concentration of 0.3% DMSO (vehicle) and added to the cells and incubated for 1 h. Cells were then stimulated with 1 μg/mL recombinant human Gas6 (R&D Systems #885-GSB-500) for 15 min, washed with cold PBS, and immediately lysed with 150 μL of cold IX lysis buffer [20 mM Tris, 137 mM sodium chloride, 2 mM EDTA, 10% glycerol, 1% NP-40 alternative, 1 mM activated sodium orthovanadate, 1 mM PefaBloc SC (Sigma-Aldrich #11429868001), protease/phosphatase inhibitor tablet (Thermo Fisher #A32959)]. Lysates were collected and 100 μL/well added into the human phospho-AXL Duo Set IC ELISA (R&D Systems #DYC2228-2). Assay was performed according to manufacturer's instructions and sample phospho-AXL concentrations were extrapolated using human phospho-AXL control (R&D Systems #841645) as a standard. Positive control wells (100% activity) contained Gas6-stimulated, DMSO-treated cell lysates. Negative control wells (0% activity) contained Gas6-stimulated, reference inhibitor-treated cell lysates. IC50 values were calculated by nonlinear regression analysis using a 4-parameter logistic curve fit in ActivityBase XL (IDBS).

Mer = Mer (Homo sapiens (Human), UniProt Q12866); experiment: Mer autophosphorylation ELISA in transient transfected 293A cells; conditions: cellular, MERTK-transfected 293A cells, phospho-Mer ELISA
Procedure: 293A cells (Thermo Fisher #R70507) were seeded at 1.5×10^6 cells/well onto 100 mm dish (Greiner #664169), in DMEM (Thermo Fisher #11995-040) containing 10% FBS (Thermo Fisher #26140-079), 1% MEM NEAA (Thermo Fisher #11140-050), 1% GlutaMax (Thermo Fisher #35050-061), and 1% Penicillin Streptomycin (Thermo Fisher #15140-122). 293A cells were incubated at 37° C., 5% CO2 for 24 h and then transfected with 6 μg MERTK DNA (Genecopoeia #EX-Z8208-M02) using TransIT LT1 transfection reagent (Mirus-Bio #MIR2305). After 24 h incubation, the transfected 293A cells were seeded at 1×10^5 cells/well onto 96-well plates (Corning #3904) in DMEM growth medium overnight. Test compounds were serially diluted to produce an 8-point dose curve in fresh serum-free medium to a final concentration of 0.3% DMSO (vehicle) and added to the cells and incubated for 1 h. Cells were then immediately lysed with 150 μL of cold IX lysis buffer [20 mM Tris, 137 mM sodium chloride, 2 mM EDTA, 10% glycerol, 1% NP-40 alternative, 1 mM activated sodium orthovanadate, 1 mM PefaBloc SC (Sigma-Aldrich #11429868001), protease/phosphatase inhibitor tablet (Thermo Fisher #A32959)]. Lysates were clarified by centrifugation and 50 μL/well added into the human phospho-Mer DuoSet IC ELISA (R&D Systems #DYC2579-2). Assay was performed according to manufacturer's instructions and sample phospho-Mer concentrations were extrapolated using human phospho-Mer control (R&D Systems #841793) as a standard. Positive control wells (100% activity) contained DMSO-treated cell lysates. Negative control wells (0% activity) contained reference inhibitor-treated cell lysates. IC50 values were calculated by nonlinear regression analysis using a 4-parameter logistic curve fit in ActivityBase XE (IDBS).

Chain of KDR (P35968 20-1356): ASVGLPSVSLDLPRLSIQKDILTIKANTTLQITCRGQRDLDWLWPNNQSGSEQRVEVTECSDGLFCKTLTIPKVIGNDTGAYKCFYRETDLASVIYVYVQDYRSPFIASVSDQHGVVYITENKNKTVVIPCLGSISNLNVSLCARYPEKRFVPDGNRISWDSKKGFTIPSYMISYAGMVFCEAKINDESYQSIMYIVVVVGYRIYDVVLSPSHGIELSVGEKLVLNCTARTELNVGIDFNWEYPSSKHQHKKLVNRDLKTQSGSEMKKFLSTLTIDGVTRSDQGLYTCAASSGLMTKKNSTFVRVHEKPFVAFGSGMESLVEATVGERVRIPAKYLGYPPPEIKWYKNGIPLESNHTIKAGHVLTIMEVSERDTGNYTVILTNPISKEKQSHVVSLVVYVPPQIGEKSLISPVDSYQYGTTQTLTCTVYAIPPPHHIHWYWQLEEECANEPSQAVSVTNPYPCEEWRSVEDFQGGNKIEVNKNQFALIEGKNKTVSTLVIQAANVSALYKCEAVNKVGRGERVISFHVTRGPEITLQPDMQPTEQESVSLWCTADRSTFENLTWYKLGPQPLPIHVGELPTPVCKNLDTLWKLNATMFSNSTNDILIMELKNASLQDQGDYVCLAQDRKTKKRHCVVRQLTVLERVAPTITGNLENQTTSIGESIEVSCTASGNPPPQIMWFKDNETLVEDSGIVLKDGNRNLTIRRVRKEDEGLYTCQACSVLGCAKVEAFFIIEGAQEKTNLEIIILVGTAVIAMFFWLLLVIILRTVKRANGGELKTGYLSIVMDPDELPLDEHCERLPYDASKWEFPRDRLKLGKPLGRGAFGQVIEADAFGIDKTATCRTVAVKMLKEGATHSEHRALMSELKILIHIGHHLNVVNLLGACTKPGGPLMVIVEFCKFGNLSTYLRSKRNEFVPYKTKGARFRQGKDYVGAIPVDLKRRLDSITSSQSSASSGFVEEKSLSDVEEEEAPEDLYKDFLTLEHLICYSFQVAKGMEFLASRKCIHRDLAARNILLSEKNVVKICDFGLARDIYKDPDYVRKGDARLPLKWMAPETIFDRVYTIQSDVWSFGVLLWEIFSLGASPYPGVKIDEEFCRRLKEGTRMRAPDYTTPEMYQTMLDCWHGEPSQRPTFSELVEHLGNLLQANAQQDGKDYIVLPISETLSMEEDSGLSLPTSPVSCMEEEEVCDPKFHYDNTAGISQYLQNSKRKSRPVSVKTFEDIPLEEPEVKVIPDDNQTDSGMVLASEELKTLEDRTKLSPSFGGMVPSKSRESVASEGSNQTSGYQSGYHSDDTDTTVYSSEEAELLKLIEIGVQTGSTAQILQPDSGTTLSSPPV
Chain of Mer (Q12866 21-999): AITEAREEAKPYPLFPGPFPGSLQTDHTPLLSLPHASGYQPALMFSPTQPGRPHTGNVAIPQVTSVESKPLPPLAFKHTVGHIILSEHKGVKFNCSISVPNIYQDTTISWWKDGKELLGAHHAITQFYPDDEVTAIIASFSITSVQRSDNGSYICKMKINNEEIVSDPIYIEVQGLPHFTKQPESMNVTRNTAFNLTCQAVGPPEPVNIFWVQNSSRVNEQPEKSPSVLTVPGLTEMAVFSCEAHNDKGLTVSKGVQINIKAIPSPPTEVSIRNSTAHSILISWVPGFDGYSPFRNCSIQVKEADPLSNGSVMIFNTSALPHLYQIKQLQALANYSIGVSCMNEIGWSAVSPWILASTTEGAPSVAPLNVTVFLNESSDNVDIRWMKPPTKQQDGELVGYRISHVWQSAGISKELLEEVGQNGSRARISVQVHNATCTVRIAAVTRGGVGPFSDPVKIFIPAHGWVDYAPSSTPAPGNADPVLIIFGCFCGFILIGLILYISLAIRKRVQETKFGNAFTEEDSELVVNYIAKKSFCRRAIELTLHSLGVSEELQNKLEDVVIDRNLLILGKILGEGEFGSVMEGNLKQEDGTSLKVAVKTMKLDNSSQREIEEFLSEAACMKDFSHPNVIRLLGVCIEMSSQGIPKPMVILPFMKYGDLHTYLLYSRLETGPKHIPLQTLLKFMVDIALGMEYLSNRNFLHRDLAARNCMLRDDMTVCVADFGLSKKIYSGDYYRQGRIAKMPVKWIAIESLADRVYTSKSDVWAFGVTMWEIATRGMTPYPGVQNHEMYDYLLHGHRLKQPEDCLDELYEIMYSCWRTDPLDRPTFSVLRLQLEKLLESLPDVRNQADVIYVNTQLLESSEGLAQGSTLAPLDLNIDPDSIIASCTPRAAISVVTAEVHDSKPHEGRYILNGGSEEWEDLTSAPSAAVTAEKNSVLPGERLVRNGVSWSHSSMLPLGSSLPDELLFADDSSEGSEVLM
Chain of AXL (P30530 26-894): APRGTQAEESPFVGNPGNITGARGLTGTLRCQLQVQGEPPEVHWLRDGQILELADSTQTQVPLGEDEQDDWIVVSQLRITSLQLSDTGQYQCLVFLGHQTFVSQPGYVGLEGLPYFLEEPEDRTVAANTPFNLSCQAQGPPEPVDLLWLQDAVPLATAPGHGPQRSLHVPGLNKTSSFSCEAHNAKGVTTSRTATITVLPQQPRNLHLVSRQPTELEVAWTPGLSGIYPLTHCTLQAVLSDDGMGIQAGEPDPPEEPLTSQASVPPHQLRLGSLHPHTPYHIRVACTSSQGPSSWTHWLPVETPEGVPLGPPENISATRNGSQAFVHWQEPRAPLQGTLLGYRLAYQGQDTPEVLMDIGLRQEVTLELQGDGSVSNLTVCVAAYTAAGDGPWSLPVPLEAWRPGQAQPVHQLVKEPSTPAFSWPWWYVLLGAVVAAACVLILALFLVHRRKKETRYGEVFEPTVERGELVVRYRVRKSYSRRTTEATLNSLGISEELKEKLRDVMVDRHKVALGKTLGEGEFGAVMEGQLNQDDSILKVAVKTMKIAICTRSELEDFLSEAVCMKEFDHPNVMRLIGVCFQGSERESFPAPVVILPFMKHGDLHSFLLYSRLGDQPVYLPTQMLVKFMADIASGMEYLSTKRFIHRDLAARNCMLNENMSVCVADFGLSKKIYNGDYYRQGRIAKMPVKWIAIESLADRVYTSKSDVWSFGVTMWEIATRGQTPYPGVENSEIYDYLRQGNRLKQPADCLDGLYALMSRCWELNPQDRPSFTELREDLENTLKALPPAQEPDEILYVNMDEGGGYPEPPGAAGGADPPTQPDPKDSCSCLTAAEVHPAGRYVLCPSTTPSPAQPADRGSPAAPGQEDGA
Chain of Met (P08581 25-1390): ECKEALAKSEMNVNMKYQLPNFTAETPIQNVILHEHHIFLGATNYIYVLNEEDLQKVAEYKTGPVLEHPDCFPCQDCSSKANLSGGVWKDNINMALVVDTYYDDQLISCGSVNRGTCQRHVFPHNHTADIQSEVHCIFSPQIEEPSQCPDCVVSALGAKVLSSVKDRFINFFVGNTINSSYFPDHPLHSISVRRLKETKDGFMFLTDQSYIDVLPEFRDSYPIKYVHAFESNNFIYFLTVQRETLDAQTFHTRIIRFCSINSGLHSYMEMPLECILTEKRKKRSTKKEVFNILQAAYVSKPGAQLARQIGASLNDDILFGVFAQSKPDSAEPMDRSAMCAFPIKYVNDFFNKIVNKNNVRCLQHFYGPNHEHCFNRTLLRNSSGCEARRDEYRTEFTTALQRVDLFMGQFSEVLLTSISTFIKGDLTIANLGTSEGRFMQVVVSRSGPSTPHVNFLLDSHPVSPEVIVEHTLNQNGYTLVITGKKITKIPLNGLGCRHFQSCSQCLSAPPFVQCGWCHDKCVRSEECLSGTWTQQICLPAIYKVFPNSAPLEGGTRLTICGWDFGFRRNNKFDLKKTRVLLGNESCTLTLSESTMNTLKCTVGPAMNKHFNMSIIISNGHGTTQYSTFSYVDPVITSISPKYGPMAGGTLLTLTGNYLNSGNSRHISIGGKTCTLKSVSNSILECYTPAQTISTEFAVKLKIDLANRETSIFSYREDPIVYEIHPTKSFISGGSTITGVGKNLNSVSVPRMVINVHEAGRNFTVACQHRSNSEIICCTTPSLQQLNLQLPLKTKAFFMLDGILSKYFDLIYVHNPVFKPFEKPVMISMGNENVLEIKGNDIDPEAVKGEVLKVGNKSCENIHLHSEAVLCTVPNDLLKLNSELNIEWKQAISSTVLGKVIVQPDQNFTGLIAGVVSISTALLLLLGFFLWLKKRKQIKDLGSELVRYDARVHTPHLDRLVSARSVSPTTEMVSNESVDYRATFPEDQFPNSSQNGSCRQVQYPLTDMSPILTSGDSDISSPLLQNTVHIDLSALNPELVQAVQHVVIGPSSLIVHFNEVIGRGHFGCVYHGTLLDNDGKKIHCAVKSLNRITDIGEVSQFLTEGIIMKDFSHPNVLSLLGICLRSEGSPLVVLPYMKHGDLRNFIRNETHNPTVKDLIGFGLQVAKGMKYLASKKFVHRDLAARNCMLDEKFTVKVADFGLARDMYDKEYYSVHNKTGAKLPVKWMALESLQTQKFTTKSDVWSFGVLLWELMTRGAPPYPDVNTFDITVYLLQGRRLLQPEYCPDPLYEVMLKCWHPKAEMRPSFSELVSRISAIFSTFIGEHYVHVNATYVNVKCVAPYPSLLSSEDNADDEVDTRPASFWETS

| Structure (SMILES) | pIC50 (Met) | pIC50 (KDR) | pIC50 (AXL) | pIC50 (Mer) |
| --- | --- | --- | --- | --- |
| COCCOc1cc2nccc(Oc3ccc(NC(=O)C4(C(=O)Nc5ccc(F)cc5)CC4)cc3Cl)c2nc1OC [Compound 151, 1-N′-[3-chloro-4-[[6-methoxy-7-(2-methoxyethoxy)-1,5-naphthyridin-4-yl]oxy]phenyl]-1-N-(4-fluoro-phenyl)cyclopropane-1,1-dicarboxamide] | 7.00 to 8.00 | ≥ 8.00 | 7.00 to 8.00 | 7.00 to 8.00 |
| COCCOc1cc2nccc(Oc3ccc(NC(=O)C4(C(=O)Nc5ccc(F)cc5)CC4)cc3)c2nc1OC [Compound 149, 1-N′-(4-fluorophenyl)-1-N-[4-[[6-methoxy-7-(2-methoxyethoxy)-1,5-naphthyridin-4-yl]oxy]phenyl]cyclopropane-1,1-dicarboxamide] | 7.00 to 8.00 | ≥ 8.00 | ≥ 8.00 | ≥ 8.00 |
| COc1nc2c(Oc3ccc(NC(=O)C4(C(=O)Nc5ccc(F)cc5)CC4)c(Cl)c3)ncnc2cc1OCCCN1CCOCC1 [Compound 70, 1-N′-[2-chloro-4-[6-methoxy-7-(3-morpholin-4-ylpropoxy)pyrido[3,2-d]pyrimidin-4-yl]oxyphenyl]-1-N-(4-fluorophenyl)cyclo-propane-1,1-dicarboxamide] | 6.52 to 7.00 | 6.52 to 7.00 | 7.00 to 8.00 | 7.00 to 8.00 |
| COc1cc2ncnc(Oc3ccc(NC(=O)C4(C(=O)Nc5ccc(F)cc5)CC4)c(F)c3F)c2nc1OC [Compound 34, 1-N′-[4-(6,7-dimethoxypyrido[3,2-d]pyrimidin-4-yl)oxy-2,3-difluorophenyl]-1-N-(4-fluorophenyl)cyclo-propane-1,1-dicarbox-amide] | 7.00 to 8.00 | 7.00 to 8.00 | ≥ 8.00 | ≥ 8.00 |
| Cn1cc(-c2cc3ncnc(Oc4ccc(NC(=O)C5(C(=O)Nc6ccc(F)cc6)CC5)cc4)c3cn2)cn1 [Compound 130, 1-N′-(4-fluorophenyl)-1-N-[4-[7-(1-methylpyrazol-4-yl)pyrido[4,3-d]pyrimidin-4-yl]oxyphenyl]cyclopropane-1,1-dicarboxamide] | 7.00 to 8.00 | ≥ 8.00 | 7.00 to 8.00 | 7.00 to 8.00 |
| COc1nc2c(Oc3ccc(NC(=O)C4(C(=O)Nc5ccc(F)cc5)CC4)cc3C#N)ncnc2cc1OCCCN1CCOCC1 [Compound 75, 1-N′-[3-cyano-4-[6-methoxy-7-(3-morpholin-4-ylpropoxy)pyrido[3,2-d]pyrimidin-4-yl]oxyphenyl]-1-N-(4-fluorophenyl)cyclo-propane-1,1-dicarboxamide] | 7.00 to 8.00 | 7.00 to 8.00 | 7.00 to 8.00 | 7.00 to 8.00 |
| COc1nc2c(Oc3c(F)cc(NC(=O)C4(C(=O)Nc5ccc(F)cc5)CC4)cc3F)ncnc2cc1OCCCN1CCOCC1 [Compound 76, 1-N′-[3,5-difluoro-4-[6-methoxy-7-(3-morpholin-4-ylpropoxy)pyrido[3,2-d]pyrimidin-4-yl]oxyphenyl]-1-N-(4-fluorophenyl)cyclo-propane-1,1-dicarboxamide] | 7.00 to 8.00 | 7.00 to 8.00 | ≥ 8.00 | ≥ 8.00 |
| COCCOc1cc2nccc(Oc3ccc(NC(=O)C4(C(=O)Nc5ccc(F)cc5)CC4)cc3F)c2nc1OC [Compound 150, 1-N′-[3-fluoro-4-[[6-methoxy-7-(2-methoxyethoxy)-1,5-naphthyridin-4-yl]oxy]phenyl]-1-N-(4-fluoro-phenyl)cyclopropane-1,1-dicarboxamide] | ≥ 8.00 | ≥ 8.00 | ≥ 8.00 | ≥ 8.00 |
| COc1nc2c(Oc3ccc(NC(=O)C4(C(=O)Nc5ccc(F)cc5)CC4)c(F)c3)ncnc2cc1OCCCN1CCOCC1 [Compound 69, 1-N′-[2-fluoro-4-[6-methoxy-7-(3-morpholin-4-ylpropoxy)pyrido[3,2-d]pyrimidin-4-yl]oxyphenyl]-1-N-(4-fluorophenyl)cyclo-propane-1,1-dicarboxamide] | 7.00 to 8.00 | 7.00 to 8.00 | ≥ 8.00 | ≥ 8.00 |

From US11708367B2, “Compounds for the treatment of kinase-dependent disorders” (Exelixis, Inc., priority 2018, dated 2023)
